Legend:
[1] = tested on: CAL-148; conditions: 72 h
In short: (§1)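 Viability of breast cancer cell lines was measured with CellTiter-Blue after 72 h of incubation on compound-loaded 384-well plates. Cells were seeded in 20 µl onto compound dissolved in 5 µl medium, and 2.5 µl reagent was added for 2 h at 37 °C before reading at 560/590 nm. EC50 was fitted from percent-inhibition dose-response data censored at the highest concentration, normalised per plate to vehicle and a positive kill control, with zero drug sensitivity score rows dropped.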

[2] = tested on: CAL-51; conditions: 72 h
In short: as §1

[3] = tested on: BT-474; assay: normalised viability (% of control), CellTiter-Blue; higher = more viable cells (about 100 = DMSO control); conditions: incubation time: 72 h
Description: (§2)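 DSRT, CellTiter-Blue viability, 72 h incubation. Signal is normalised to DMSO and benzethonium chloride controls. Value is the normalised response at dose 3.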

[4] = tested on: BT-549; assay: as above; conditions: incubation time: 72 h
Description: as §2

[5] = tested on: CAL-120; assay: as above; conditions: incubation time: 72 h
Description: as §2

[6] = tested on: CAL-148; assay: as above; conditions: incubation time: 72 h
Description: as §2

[7] = tested on: CAL-51; assay: as above; conditions: incubation time: 72 h
Description: as §2

[8] = tested on: CAL-85-1; assay: as above; conditions: incubation time: 72 h
Description: as §2

[9] = tested on: DU-4475; assay: as above; conditions: incubation time: 72 h
Description: as §2

[10] = tested on: HCC1143; assay: as above; conditions: incubation time: 72 h
Description: as §2

[11] = tested on: HCC1599; assay: as above; conditions: incubation time: 72 h
Description: as §2

[12] = tested on: HCC1937; assay: as above; conditions: incubation time: 72 h
Description: as §2

[13] = tested on: HDQ-P1; assay: as above; conditions: incubation time: 72 h
Description: as §2

[14] = tested on: Hs578T; assay: as above; conditions: incubation time: 72 h
Description: as §2

[15] = tested on: MDA-MB-231; assay: as above; conditions: incubation time: 72 h
Description: as §2

[16] = tested on: MDA-MB-436; assay: as above; conditions: incubation time: 72 h
Description: as §2

[17] = tested on: MDA-MB-453; assay: as above; conditions: incubation time: 72 h
Description: as §2

[18] = tested on: MDA-MB-468; assay: as above; conditions: incubation time: 72 h
Description: as §2

[19] = tested on: MFM-223; assay: as above; conditions: incubation time: 72 h
Description: as §2

[20] = tested on: SK-BR-3; assay: as above; conditions: incubation time: 72 h
Description: as §2

[21] = tested on: BT-474; assay: normalised viability (% of control), CellTiter-Blue; higher = more viable cells (about 100 = DMSO control); conditions: incubation time: 72 h; remark: listed apart in the source
In short: (§3)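 384-well plates were pre-loaded with compound in 5 µl medium before 20 µl of breast cancer cell suspension was seeded. Following 72 h incubation, 2.5 µl CellTiter-Blue reagent was added for 2 h at 37 °C. Fluorescence was read at 560/590 nm and plates were normalised to vehicle (100) and a positive kill control (0), checked by Z'-factor. Normalised viability is reported at a single listed concentration of the series.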

[22] = tested on: CAL-51; assay: as above; conditions: incubation time: 72 h; remark: listed apart in the source
In short: as §3

[23] = tested on: CAL-85-1; assay: as above; conditions: incubation time: 72 h; remark: listed apart in the source
In short: as §3

[24] = tested on: DU-4475; assay: as above; conditions: incubation time: 72 h; remark: listed apart in the source
In short: as §3

[25] = tested on: MDA-MB-231; assay: as above; conditions: incubation time: 72 h; remark: listed apart in the source
In short: as §3

[26] = tested on: MDA-MB-436; assay: as above; conditions: incubation time: 72 h; remark: listed apart in the source
In short: as §3

[27] = tested on: MDA-MB-453; assay: as above; conditions: incubation time: 72 h; remark: listed apart in the source
In short: as §3

[28] = tested on: MFM-223; assay: as above; conditions: incubation time: 72 h; remark: listed apart in the source
In short: as §3

CN1CCC(COc2cnc(-c3cccc(Cn4nc(-c5cccc(C#N)c5)ccc4=O)c3)nc2)CC1
Conditions | EC50, CellTiter-Blue viability [nM]
[1] | 5800
[2] | 4990

Conditions | normalised viability [%]
[3], 100 nM | 102
[4], 100 nM | 81.5
[5], 100 nM | 108
[6], 10 nM | 79.1
[7], 10 nM | 92.9
[8], 10 nM | 94.4
[9], 10 nM | 98.3
[10], 100 nM | 109
[11], 100 nM | 116
[12], 100 nM | 94
[13], 10 nM | 86.3
[14], 100 nM | 76.3
[15], 100 nM | 83.4
[16], 100 nM | 92.3
[17], 10 nM | 89.3
[18], 100 nM | 95
[19], 100 nM | 96.9
[20], 100 nM | 68.9
[21], 10 nM | 93.6
[21], 1000 nM | 105
[21], 10000 nM | 9.72
[22], 3 nM | 97.3
[22], 30 nM | 98
[22], 100 nM | 87.6
[23], 3 nM | 110
[23], 30 nM | 96.5
[23], 100 nM | 121
[24], 3 nM | 94.1
[24], 30 nM | 89.7
[24], 100 nM | 99.2
[25], 10 nM | 79
[25], 1000 nM | 81.3
[25], 10000 nM | 1.93
[26], 10 nM | 82.3
[26], 1000 nM | 92.3
[26], 10000 nM | 11.6
[27], 3 nM | 84.5
[27], 30 nM | 91.2
[27], 100 nM | 93.8
[28], 10 nM | 108
[28], 1000 nM | 119
[28], 10000 nM | 22.5

CN(C)C/C=C/C(=O)Nc1cc2c(Nc3ccc(F)c(Cl)c3)ncnc2cc1O[C@H]1CCOC1 [Afatinib]
Conditions | EC50, CellTiter-Blue viability [nM]
[1] | 65
[2] | 4750

Conditions | normalised viability [%]
[3], 100 nM | 34.8
[4], 100 nM | 104
[5], 100 nM | 71.8
[6], 10 nM | 79.9
[7], 10 nM | 107
[8], 10 nM | 84.7
[9], 10 nM | 95.1
[10], 100 nM | 71
[11], 100 nM | 84.6
[12], 100 nM | 93.4
[13], 10 nM | 94.3
[14], 100 nM | 84.2
[15], 100 nM | 90.3
[16], 100 nM | 84.7
[17], 10 nM | 81.4
[18], 100 nM | 60.9
[19], 100 nM | 84.8
[20], 100 nM | 15.2
[21], 10 nM | 72.1
[21], 1000 nM | 33.8
[21], 10000 nM | 16
[22], 3 nM | 114
[22], 30 nM | 99.8
[22], 100 nM | 97.7
[23], 3 nM | 83.2
[23], 30 nM | 57.4
[23], 100 nM | 54.2
[24], 3 nM | 95.1
[24], 30 nM | 83.2
[24], 100 nM | 85.8
[25], 10 nM | 89.1
[25], 1000 nM | 74.2
[25], 10000 nM | 7.48
[26], 10 nM | 90.8
[26], 1000 nM | 103
[26], 10000 nM | 17.3
[27], 3 nM | 104
[27], 30 nM | 67
[27], 100 nM | 46.6
[28], 10 nM | 88.7
[28], 1000 nM | 83.4
[28], 10000 nM | 25.1

CN1CC[C@H](c2c(O)cc(O)c3c(=O)cc(-c4ccccc4Cl)oc23)[C@H](O)C1 [Alvocidib]
Conditions | EC50, CellTiter-Blue viability [nM]
[1] | 125
[2] | 185

Conditions | normalised viability [%]
[3], 100 nM | 96.4
[4], 100 nM | 95.6
[5], 100 nM | 68.2
[6], 10 nM | 85.4
[7], 10 nM | 103
[8], 10 nM | 93.8
[9], 10 nM | 93
[10], 100 nM | 69.7
[11], 100 nM | 82.4
[12], 100 nM | 69.4
[13], 10 nM | 106
[14], 100 nM | 51.5
[15], 100 nM | 82.9
[16], 100 nM | 99.7
[17], 10 nM | 98.1
[18], 100 nM | 91.5
[19], 100 nM | 76.3
[20], 100 nM | 46.9
[21], 10 nM | 102
[21], 1000 nM | 23
[21], 10000 nM | 26.6
[22], 3 nM | 109
[22], 30 nM | 92.5
[22], 100 nM | 78.1
[23], 3 nM | 82.7
[23], 30 nM | 79.9
[23], 100 nM | 76.6
[24], 3 nM | 90.7
[24], 30 nM | 79.2
[24], 100 nM | 78.6
[25], 10 nM | 88.2
[25], 1000 nM | 7.07
[25], 10000 nM | 6.37
[26], 10 nM | 91
[26], 1000 nM | 14.9
[26], 10000 nM | 15.8
[27], 3 nM | 104
[27], 30 nM | 91.4
[27], 100 nM | 73
[28], 10 nM | 87.3
[28], 1000 nM | 8.79
[28], 10000 nM | 8.79

Nc1nc(Cl)nc2c1ncn2[C@H]1C[C@H](O)[C@@H](CO)O1 [Cladribine]
Conditions | EC50, CellTiter-Blue viability [nM]
[1] | > 1000
[2] | > 1000

Conditions | normalised viability [%]
[3], 10 nM | 118
[4], 10 nM | 92
[5], 10 nM | 97.4
[6], 1 nM | 97.4
[7], 1 nM | 114
[8], 1 nM | 107
[9], 1 nM | 108
[10], 10 nM | 85.5
[11], 10 nM | 105
[12], 10 nM | 84.8
[13], 1 nM | 120
[14], 10 nM | 98.4
[15], 10 nM | 83
[16], 10 nM | 96.9
[17], 1 nM | 112
[18], 10 nM | 104
[19], 10 nM | 85
[20], 10 nM | 95
[21], 1 nM | 112
[21], 100 nM | 102
[21], 1000 nM | 103
[22], 0.3 nM | 119
[22], 3 nM | 116
[22], 10 nM | 114
[23], 0.3 nM | 102
[23], 3 nM | 101
[23], 10 nM | 105
[24], 0.3 nM | 106
[24], 3 nM | 104
[24], 10 nM | 102
[25], 1 nM | 101
[25], 100 nM | 67
[25], 1000 nM | 71.9
[26], 1 nM | 101
[26], 100 nM | 90
[26], 1000 nM | 65.8
[27], 0.3 nM | 126
[27], 3 nM | 97.4
[27], 10 nM | 89.7
[28], 1 nM | 86.2
[28], 100 nM | 86.7
[28], 1000 nM | 90

— the supplement of paper PMC4862054
